Experimental data: PMC12212627, “Machine Learning-Based Virtual Screening of Antibacterial Agents against Methicillin-Susceptible and Resistant Staphylococcus aureus” (Journal of Chemical Information and Modeling, 2024)
Converted amounts (≈) assume the structure as drawn.

Tests used:
[1] = test system: clinical strain of MRSA n° 5749; assay: Broth microdilution (CLSI): screening at 100 μM and MIC, MRSA clinical strain 5749; type: cell-based, Staphylococcus aureus; details: for % of growth inhibition, MRSA (5749): at the concentration given (MIC or 100 μM where MIC >100)
Experimental: (§1) E. coli (ATCC n° […]) – a TEM-1 β-lactamase producing strain, S. aureus (ATCC n° 29213) – herein referred to as MSSA, MRSA (ATCC n° 43300), and two clinical strains of MRSA (n° 5749 and 6154) were used in the biological assays. The antibacterial activity and minimal inhibitory concentration (MIC) of the screened compounds were evaluated with the broth microdilution method in 96-well microplates, according to the Clinical and Laboratory Standards Institute (CLSI) protocol. Initially, compounds were evaluated in a screening assay to identify promising hits. The compounds were dissolved in dimethyl sulfoxide (DMSO) and then diluted in Mueller Hinton broth (MHB; Oxoid, Thermo Scientific, U.K.) to a concentration of 200 μM. After the addition of 100 μL to each well, the same volume of bacterial suspension containing 10^5 CFU/mL was added to each of the previous solutions, resulting in a final compound concentration of 100 μM. A viability control (bacterial suspension only), inhibition controls (MHB containing five times the MIC of penicillin G for MSSA, vancomycin for MRSA strains, and streptomycin for E. coli), a sterility control (medium only), and a vehicle control (DMSO 2% v/v) were included in each assay microplate. After 24 h of incubation at 37 °C, the microplates were visually inspected for inhibition of bacterial growth, and the absorbance at 600 nm of each well was read using a microplate reader spectrophotometer (VersaMax, Molecular Devices, CA). The percentage of growth inhibition was calculated as the percentage of growth reduction compared with the vehicle control. Wells showing no visual bacterial growth (no turbidity) were considered hits. The MIC of the promising compounds in the initial screening were tested as previously described, with a serial dilution of each compound (100–1.56 μM). All conditions were tested in triplicate from at least three independent assays.

[2] = test system: clinical strain of MRSA n° 6154; assay: Broth microdilution (CLSI): screening at 100 μM and MIC, MRSA clinical strain 6154; type: cell-based, Staphylococcus aureus; details: for MIC: broth microdilution, 24 h, 37 °C; for % of growth inhibition, MRSA (6154): at the concentration given (MIC or 100 μM where MIC >100)
Experimental: as §1

[3] = test system: E. coli (ATCC 35218), TEM-1 β-lactamase producing strain; assay: Broth microdilution (CLSI): screening at 100 μM and MIC, E. coli; type: cell-based; details: broth microdilution, 24 h, 37 °C
Experimental: as §1

[4] = test system: S. aureus (ATCC n° 29213), MSSA; assay: Broth microdilution (CLSI): screening at 100 μM and MIC, MSSA; type: cell-based, Staphylococcus aureus; details: for MIC: broth microdilution, 24 h, 37 °C; for % of growth inhibition, MSSA (ATCC 29123): at the concentration (MIC)
Experimental: as §1

MRSA (ATCC n° 43300) = assay: Broth microdilution (CLSI): screening at 100 μM and MIC, MRSA reference strain; type: cell-based, Staphylococcus aureus; details: for MIC: broth microdilution, 24 h, 37 °C; for % of growth inhibition, MRSA (ATCC 43300): at the concentration given (MIC or 100 μM where MIC >100)
Experimental: as §1

MSSA and MRSA strains = assay: Broth microdilution, results summed up over MSSA and MRSA strains; type: cell-based, Staphylococcus aureus; details: Staphylococcus aureus; span over the strains evaluated; read-out: MIC values against MSSA and all MRSA strains
Experimental: as §1

[5] = Cytotoxicity, colorimetric MTT assay; type: cell-based; details: African green monkey, Vero (ATCC CCL-81) cells, 72 h incubation
Experimental: As for the cytotoxic concentration of 50% (CC50) determination, the Vero (ATCC CCL-81) cell line was cultured in Eagle’s Minimum Essential Medium (MEM) (Cultilab, Brazil). The medium was supplemented with 5% fetal bovine serum (FBS) (Cultilab, Brazil), in addition to 100 IU/mL penicillin (Cellofarm, Brazil), 100 μg/mL streptomycin (Merck, Germany), and 0.25 μg/mL amphotericin B (Cultilab, Brazil). Cells were seeded in 96-well microplates (4.0 × 10^4 cells per well) and incubated at 37 °C and 5% CO2 atmosphere. After 24 h of incubation, 200 μL of fresh medium containing a serial dilution of the compounds (100–1.56 μM) was added to the plates. Serial dilutions of DMSO were used as vehicle controls. After 72 h of incubation under the same conditions, 100 μL of 3-(4,5-dimethylthiazol-2-yl)–2,5-diphenyltetrazolium bromide (MTT) in MEM (0.5 mg/mL) was added to each well. After 3 h of incubation with MTT (ThermoFischer Scientific), the medium was removed, and 100 μL of DMSO was added to each well to solubilize the formazan crystals. After a brief incubation under shaking for 20 min, the absorbance at 570 nm of each well was read using a spectrophotometer (VersaMax, Molecular Devices). The percentages of inhibition of cell viability were calculated by using the vehicle control. The cytotoxic concentration of 50% (CC50) is defined as the lowest concentration of a given compound that can reduce the viability of cultured cells by 50%. Posteriorly, the selectivity index (SI), that is, the ratio between the CC50 and MIC values of each active compound, was calculated. All conditions were tested in triplicate and at least two independent assays. The overall procedures applied in this work are illustrated in Figure .

[6] = pharmacokinetic properties already determined; cited from earlier work
[7] = Staphylococcus aureus, MRSA, broth microdilution, 24 h, 37 °C
[8] = Staphylococcus aureus, ATCC 29123 / MSSA
[9] = Staphylococcus aureus, ATCC 43300 / MRSA

Row | MIC [1, 7] [µM] | MIC ([2]; Staphylococcus aureus, MRSA) [µM] | MIC, E. coli (ATCC 35218) [3] | MIC [4, 8] [µM] | MIC (MRSA (ATCC n° 43300); [9]) [µM] | MIC (MSSA and MRSA strains) [µM] | Compound | % of growth inhibition, MRSA (5749) [1] [%] | % of growth inhibition, MRSA (6154) [2] [%] | % of growth inhibition, MSSA (ATCC 29123) [4] [%] | % of growth inhibition, MRSA (ATCC 43300) (MRSA (ATCC n° 43300)) [%] | CC50 at 72 h [5] [µM] | MIC, MRSA (5749) ([1]; broth microdilution, 24 h, 37 °C) | inhibition at 100 µM ([4]; Staphylococcus aureus, ATCC 29123 / MSSA, at 100 μM, below the MIC, read-out: % of growth inhibition, MSSA (ATCC 29123), second line) [%] | cell permeability [6] | stability in the gastrointestinal tract [6] | inhibition at 50 µM ([1]; Staphylococcus aureus, MRSA, at 50 μM, below the MIC, read-out: % of growth inhibition, MRSA (5749), second line) [%] | inhibition at 50 µM ([2]; Staphylococcus aureus, MRSA, at 50 μM, below the MIC, read-out: % of growth inhibition, MRSA (6154), second line) [%] | inhibition at 50 µM (MRSA (ATCC n° 43300); Staphylococcus aureus, ATCC 43300 / MRSA, at 50 μM, below the MIC, read-out: % of growth inhibition, MRSA (ATCC 43300), second line) [%]
1 | > 100 | > 100 | − | 100 (≈ 52.7 µg/mL) | > 100 | ≥ 100 | CC(=O)O[C@@H]1[C@H](OC(C)=O)[C@H](C)O[C@H](n2cc(COC3=CC(=O)c4ccccc4C3=O)nn2)[C@H]1OC(C)=O [Compound 1, 2-[1-(2,3,4-tri-O-acetyl-6-deoxy-β-L-galactopyranosyl)-1,2,3-triazol-4-(methyl)oxy]-1,4-naphtoquinone] | 41.76 | 50.60 | 99.60 | 70.02 | 33.8 ± 3.44 |  |  |  |  |  |  | 
2 | 50 (≈ 10.6 µg/mL) | 50 (≈ 10.6 µg/mL) | − | 50 (≈ 10.6 µg/mL) | 50 (≈ 10.6 µg/mL) | 50 (≈ 10.6 µg/mL) | C#CCOC1=CC(=O)c2ccccc2C1=O [Compound 3, 2-[(prop-2-yn-1-yl)oxy]-1,4-naphtoquinone] | > 99.9 | > 99.9 | 96.52 | > 99.9 | 21.2 ± 8.89 |  |  |  |  |  |  | 
3 | 100 (≈ 63 µg/mL) | 100 (≈ 63 µg/mL) | − | 50 (≈ 31.5 µg/mL) | 100 (≈ 63 µg/mL) | 50 to 100 (≈ 31.5 to 63 µg/mL) | O=C(NCCCOCCCNC(=O)c1ccc(-c2ccc(Br)cc2)o1)c1ccc(-c2ccc(Br)cc2)o1 [Compound 6, N,N′-(oxybis(propane-3,1-diyl))-bis(5-(4-bromophenyl)furan-2-carboxamide)] | > 99.9 | > 99.9 | > 99.9 | > 99.9 | 43.4 ± 4.66 |  |  |  |  | 73.5 | 78.4 | 85.3

Row | Compound | MIC [1, 7] [µM] | MIC ([2]; Staphylococcus aureus, MRSA) [µM] | MIC, E. coli (ATCC 35218) [3] | MIC [4, 8] [µM] | MIC (MRSA (ATCC n° 43300); [9]) [µM] | MIC (MSSA and MRSA strains) [µM] | % of growth inhibition, MRSA (5749) [1] [%] | % of growth inhibition, MRSA (6154) [2] [%] | % of growth inhibition, MSSA (ATCC 29123) [4] [%] | % of growth inhibition, MRSA (ATCC 43300) (MRSA (ATCC n° 43300)) [%] | CC50 at 72 h [5] [µM] | MIC, MRSA (5749) ([1]; broth microdilution, 24 h, 37 °C) | inhibition at 100 µM ([4]; Staphylococcus aureus, ATCC 29123 / MSSA, at 100 μM, below the MIC, read-out: % of growth inhibition, MSSA (ATCC 29123), second line) [%] | cell permeability [6] | stability in the gastrointestinal tract [6] | inhibition at 50 µM ([1]; Staphylococcus aureus, MRSA, at 50 μM, below the MIC, read-out: % of growth inhibition, MRSA (5749), second line) [%] | inhibition at 50 µM ([2]; Staphylococcus aureus, MRSA, at 50 μM, below the MIC, read-out: % of growth inhibition, MRSA (6154), second line) [%] | inhibition at 50 µM (MRSA (ATCC n° 43300); Staphylococcus aureus, ATCC 43300 / MRSA, at 50 μM, below the MIC, read-out: % of growth inhibition, MRSA (ATCC 43300), second line) [%]
4 | C=C/C(C)=C\C[C@]1(C)[C@H](C)C[C@H](O)[C@@]23C(=C[C@H](OC(=O)CCC)C[C@@H]12)[C@@H](OC(C)=O)O[C@H]3OC(C)=O [Compound 5, [(1S,3R,5R,6aS,7R,8R,10S,10aS)-1,3-diacetyloxy-10-hydroxy-7,8-dimethyl-7-[(2Z)-3-methylpenta-2,4-dienyl]-1,3,5,6,6a,8,9,10-octahydrobenzo[d][2]benzofuran-5-yl] butanoate] |  | 100 (≈ 50.5 µg/mL) | − | 200 (≈ 101 µg/mL) | 100 (≈ 50.5 µg/mL) |  |  | > 99.9 | 96.43 | > 99.9 |  | − | 27.4 | high | degradation in the gastrointestinal tract |  |  | 
